# Measurements reported in patent EP3974434B1, “MACROLIDE DERIVATIVES, PREPARATION METHOD AND APPLICATION THEREOF” (Zhejiang Hisun Pharmaceutical Co., Ltd., priority 2019, dated 2020).
# Legend:
# BAF3 LMNA-TRKA^WT = test: Cell proliferation assay (CellTiter-Glo), BAF3 LMNA-TRKA WT; assay type: cell-based; details: Mus musculus, 72 hours
# Procedure: The following method was used to determine the effects of the compounds of the present invention on cell proliferation. BAF3 cells were purchased from National Infrastructure of Cell Line Resource (Beijing Headquarter). For TRKA, BAF3 cells were used to construct […] stable cell lines of BAF3 LMNA-TRKA^WT and BAF3 LMNA-TRKA^G667C.The above […] cell lines were used to determine the inhibition of the compounds on cell activities. The cells were cultured in an RPMI 1640 medium containing 10% fetal bovine serum, 100 U penicillin and 100 µg/mL streptomycin. The cells were cultured in a 5% CO2 incubator at 37°C. The activities of the cells were determined by CellTiter-Glo® Luminescent Cell Viability Assay kit (Promega, article number: G7573).
# The experimental methods were operated according to the steps in the kit instruction, and were briefly described as follows: a test compound was first dissolved in DMSO to prepare a storage solution, and then diluted in gradient with the corresponding cell culture medium to prepare a test sample. A final concentration of the compound ranged from 1 µM to 0.15 nM. […] After the culture, 50 µL of CellTiter-Glo detection solution was added to each well, shaken for 5 minutes, and then stood for 10 minutes, and the luminescence values of each well were read on the microplate reader using a Luminance mode. […]
# TRKC(G623R) = biological target: T1, TRKC(G623R) (Homo sapiens, UniProt Q16288, G623R); test: HTRF KinEASE-TK kinase activity inhibition assay, TRKC(G623R); assay type: biochemical; details: ATP 100 µM
# T1 construct: purchased SignalChem N18-12CH-10
# Excerpt: (§1) The following method was used to determine the inhibition degrees of the compounds of the present invention on the activity of recombinant human NTRK family kinase in vitro. In this method, HTRF®KinEASE-TK tyrosine kinase kit (article number: 62TK0PEB) of Cisbio company was used, and the principle of the kit was based on time-resolved fluorescence resonance energy transfer (TF-FRET), and the inhibition of the compounds on the activity of the NTRK kinase was reflected by determining a phosphorylation degree of a biotinylated polypeptide substrate mediated by NTRK kinase. For detailed experimental operation, please refer to the kit instruction. Recombinant human wild-type NTRK proteins were purchased from Carna bioscience (the article numbers were TRKA #08-186, TRKB #08-187 and TRKC #08-197 respectively), and recombinant human mutant NTRK proteins were purchased from SignalChem (the article numbers were TRKA G595R #N16-12BG-10, TRKA G667C # N16-12CG-10, and TRKC G623R # N18-12CH-10 respectively).
# The experimental methods were operated according to the steps in the kit instruction, and were briefly described as follows: a test compound was first dissolved in DMSO to prepare a storage solution, and then diluted in gradient with a buffer provided in the kit. A final concentration of the test compound in the reaction system ranged from 1,000 nM to 0.004 nM. An ATP Km value concentration of each NTRK protein was determined by using an ATP solution diluted in gradient (Sangon Biotech (Shanghai) Co., Ltd., A600311). According to the Km value obtained, the ATP concentrations in the reaction system were set as 100 µM for TRKA, 10 µM for TRKB, 50 µM for TRKC, 7 µM for TRKA(G595R), 1 µM for TRKA(G667C) and 100 µM for TRKC(G623R). The reaction was carried out in a 384-well microplate. Firstly, the compound and a certain amount of corresponding NTRK protein were added to the wells and incubated for 5 minutes to 10 minutes at room temperature. Then, the ATP solution and the biotinylated polypeptide substrate solution were added to the reaction solution and incubated with shaking at room temperature for 60 minutes. […] After incubation, fluorescence intensity values of each well at an excitation wavelength of 304 nm, and emission wavelengths of 620 nm and 665 nM were determined in a TF-FRET mode on a microplate reader. Compared with the fluorescence intensity ratio of a control group (0.1% DMSO), the percentage inhibition rates of the compound at each concentration were calculated, and the IC50 value of the compound was obtained by performing nonlinear regression analysis for logarithmic value of the compound concentration - inhibition rate by GraphPad Prism 5 software, which can be seen in Table 1. […]
# TRKC = biological target: T2, TRKC (Homo sapiens, UniProt Q16288); test: HTRF KinEASE-TK kinase activity inhibition assay, TRKC; assay type: biochemical; details: ATP 50 µM
# T2 construct: purchased Carna bioscience 08-197
# Excerpt: as §1
# (§2) The experimental methods were operated according to the steps in the kit instruction, and were briefly described as follows: a test compound was first dissolved in DMSO to prepare a storage solution, and then diluted in gradient with a buffer provided in the kit. A final concentration of the test compound in the reaction system ranged from 1,000 nM to 0.004 nM. An ATP Km value concentration of each NTRK protein was determined by using an ATP solution diluted in gradient (Sangon Biotech (Shanghai) Co., Ltd., A600311). According to the Km value obtained, the ATP concentrations in the reaction system were set as 100 µM for TRKA, 10 µM for TRKB, 50 µM for TRKC, 7 µM for TRKA(G595R), 1 µM for TRKA(G667C) and 100 µM for TRKC(G623R). The reaction was carried out in a 384-well microplate. Firstly, the compound and a certain amount of corresponding NTRK protein were added to the wells and incubated for 5 minutes to 10 minutes at room temperature. Then, the ATP solution and the biotinylated polypeptide substrate solution were added to the reaction solution and incubated with shaking at room temperature for 60 minutes. Then, an anti-phosphorylated tyrosine antibody coupled with a europium compound and streptavidin coupled with modified allophycocyanin XL665 were added to the reaction, and continuously incubated with shaking at room temperature for 1 hour. After incubation, fluorescence intensity values of each well at an excitation wavelength of 304 nm, and emission wavelengths of 620 nm and 665 nM were determined in a TF-FRET mode on a microplate reader. Compared with the fluorescence intensity ratio of a control group (0.1% DMSO), the percentage inhibition rates of the compound at each concentration were calculated, and the IC50 value of the compound was obtained by performing nonlinear regression analysis for logarithmic value of the compound concentration - inhibition rate by GraphPad Prism 5 software, which can be seen in Table 1. Table 1 IC50 data of the compounds of the present invention on TRK enzyme activity inhibition
# TRKA(G667C) = biological target: T3, TRKA(G667C) (Homo sapiens, UniProt P04629, G667C); test: HTRF KinEASE-TK kinase activity inhibition assay, TRKA(G667C); assay type: biochemical; details: ATP 1 µM
# T3 construct: purchased SignalChem N16-12CG-10
# Excerpt: as §1, §2
# T2 sequence (Q16288 32-839): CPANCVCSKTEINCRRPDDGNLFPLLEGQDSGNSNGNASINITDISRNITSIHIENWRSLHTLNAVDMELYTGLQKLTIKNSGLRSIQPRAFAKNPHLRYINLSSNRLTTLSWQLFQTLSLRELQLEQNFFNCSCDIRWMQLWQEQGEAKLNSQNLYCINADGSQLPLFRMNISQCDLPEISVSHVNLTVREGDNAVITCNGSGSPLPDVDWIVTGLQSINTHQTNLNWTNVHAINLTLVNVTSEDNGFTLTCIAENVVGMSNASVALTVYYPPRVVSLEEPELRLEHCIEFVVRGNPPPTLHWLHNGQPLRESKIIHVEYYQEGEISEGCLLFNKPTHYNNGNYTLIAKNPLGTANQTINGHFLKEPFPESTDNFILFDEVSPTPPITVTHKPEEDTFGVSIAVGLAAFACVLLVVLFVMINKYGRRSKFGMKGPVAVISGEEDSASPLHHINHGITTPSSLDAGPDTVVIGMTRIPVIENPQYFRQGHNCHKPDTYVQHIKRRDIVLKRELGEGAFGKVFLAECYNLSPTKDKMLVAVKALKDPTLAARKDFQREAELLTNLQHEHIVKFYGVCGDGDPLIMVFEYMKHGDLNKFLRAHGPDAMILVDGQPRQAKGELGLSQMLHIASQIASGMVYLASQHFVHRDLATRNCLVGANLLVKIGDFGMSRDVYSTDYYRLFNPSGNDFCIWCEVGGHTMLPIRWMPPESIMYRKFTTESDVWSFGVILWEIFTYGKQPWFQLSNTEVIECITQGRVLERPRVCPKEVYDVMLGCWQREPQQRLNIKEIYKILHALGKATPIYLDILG
# T3 sequence (P04629 33-796 G667C): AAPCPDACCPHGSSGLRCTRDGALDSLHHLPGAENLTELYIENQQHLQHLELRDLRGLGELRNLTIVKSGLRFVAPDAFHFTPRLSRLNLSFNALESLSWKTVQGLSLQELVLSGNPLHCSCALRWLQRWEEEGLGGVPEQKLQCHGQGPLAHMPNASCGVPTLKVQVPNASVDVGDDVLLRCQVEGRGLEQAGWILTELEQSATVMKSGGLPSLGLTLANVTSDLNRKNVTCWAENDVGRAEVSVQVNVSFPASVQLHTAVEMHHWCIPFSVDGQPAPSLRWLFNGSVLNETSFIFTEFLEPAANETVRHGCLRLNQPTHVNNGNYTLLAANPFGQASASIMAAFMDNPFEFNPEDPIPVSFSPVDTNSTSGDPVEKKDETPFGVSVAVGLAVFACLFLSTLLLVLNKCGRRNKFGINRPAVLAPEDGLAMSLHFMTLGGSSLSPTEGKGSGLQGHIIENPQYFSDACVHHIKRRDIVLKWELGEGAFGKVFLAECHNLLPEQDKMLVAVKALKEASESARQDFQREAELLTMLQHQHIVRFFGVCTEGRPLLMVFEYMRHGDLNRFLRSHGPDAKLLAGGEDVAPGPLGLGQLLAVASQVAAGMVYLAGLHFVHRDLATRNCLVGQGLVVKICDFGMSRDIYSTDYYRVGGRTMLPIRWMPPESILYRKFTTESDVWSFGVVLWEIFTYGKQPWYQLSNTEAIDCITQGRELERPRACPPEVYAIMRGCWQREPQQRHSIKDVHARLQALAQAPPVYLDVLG
# T1 sequence (Q16288 32-839 G623R): as the sequence (Q16288 32-839) above, with G592R counted along it
Structure (SMILES),IC50 (BAF3 LMNA-TRKA^WT),IC50 (TRKC(G623R)),IC50 (TRKC),IC50 (TRKA(G667C))
"C[C@H]1Nc2ccn3ncc(c3n2)C(=O)NC[C@@]2(C)Cc3cc(F)cc1c3O2 [Example 8, (3R,11R)-6-fluoro-3,11-dimethyl-10-oxa-2,13,17,1 8,21-pentaazapentacyclo[13.5.2.1^8,11.0^4,9.0^18,22]tric osa-1(21),4,6,8,15(22),16,19-heptaen-14-one]",1.5 nM,13.5 nM,0.22 nM,–
"C[C@H]1Nc2ccn3nc(N)c(c3n2)C(=O)NC[C@@]2(C)Cc3cc(F)cc1c3O2 [Example 25, (3R,11R)-16-amino-6-fluoro-3,11-dimethyl-10-oxa-2,13,17,18,21-pentaazapentacyclo[13.5.2.1^8,11.0^4,9. 0^18,22]tricosa-1(21),4,6,8,15(22),16,19-heptaen-14-one]",1.2 nM,–,0.7 nM,9.5 nM
